Reference: ChEMBL document CHEMBL5500404, “Discovery and Development of NLRP3 Inhibitors Targeting the LRR Domain to Disrupt NLRP3-NEK7 Interaction for the Treatment of Rheumatoid Arthritis” (J Med Chem, 2024)
Activity calls are given as the source filed them. The calls are words filed in the database; no cut-off is given here.

Columns and labels:
[1] = Cytotoxicity against human THP-1 cells assessed as cellular proliferation inhibition measured after 48 hrs by MTT assay; format: toxicity, cell-based
[2] = system: Rattus norvegicus; test: Anti-inflammatory activity against complete Freund's adjuvant (CFA)-induced arthritis rat model assessed as synovial hyperplasia in rat synovium from the left rear ankle at 10 mg/kg, ip treated after 17 days of CFA challenge measured after 18 days (day 17 to 34) by H and E staining based assay relative to model group; format: functional, organism-based; details: time 18.0 day
[3] = MRT (0 to infinity) in Sprague-Dawley rat at 20 mg/kg, ip measured upto 720 mins by LC-MS/MS analysis; format: ADME, organism-based; details: in vivo
[4] = Bioavailability in Sprague-Dawley rat at 20 mg/kg, ip measured upto 720 mins by LC-MS/MS analysis; format: ADME, organism-based; details: in vivo
[5] = AUC (0 to infinity) in Sprague-Dawley rat at 20 mg/kg, IG measured upto 1440 mins by LC-MS/MS analysis; format: ADME, organism-based; details: in vivo, po
[6] = MRT (0 to t) in Sprague-Dawley rat at 20 mg/kg, ip measured upto 720 mins by LC-MS/MS analysis; format: ADME, organism-based; details: in vivo
[7] = MRT (0 to t) in Sprague-Dawley rat at 20 mg/kg, IG measured upto 1440 mins by LC-MS/MS analysis; format: ADME, organism-based; details: in vivo, po
[8] = Cmax in Sprague-Dawley rat at 20 mg/kg, IG measured upto 1440 mins by LC-MS/MS analysis; format: ADME, organism-based; details: in vivo, po
[9] = Apparent clearance during terminal phase in Sprague-Dawley rat at 20 mg/kg, IG measured upto 1440 mins by LC-MS/MS analysis; format: ADME, organism-based; details: in vivo, po
[10] = Tmax in Sprague-Dawley rat at 20 mg/kg, IG measured upto 1440 mins by LC-MS/MS analysis; format: ADME, organism-based; details: in vivo, po
[11] = Apparent volume of distribution during terminal phase in Sprague-Dawley rat at 20 mg/kg, ip measured upto 720 mins by LC-MS/MS analysis; format: ADME, organism-based; details: in vivo, read-out: Vz/F
[12] = Half life in Sprague-Dawley rat at 20 mg/kg, ip measured upto 720 mins by LC-MS/MS analysis; format: ADME, organism-based; details: in vivo
[13] = Apparent volume of distribution during terminal phase in Sprague-Dawley rat at 20 mg/kg, IG measured upto 1440 mins by LC-MS/MS analysis; format: ADME, organism-based; details: in vivo, po, read-out: Vz/F
[14] = Half life in Sprague-Dawley rat at 20 mg/kg, IG measured upto 1440 mins by LC-MS/MS analysis; format: ADME, organism-based; details: in vivo, po
[15] = AUC (0 to infinity) in Sprague-Dawley rat at 20 mg/kg, ip measured upto 720 mins by LC-MS/MS analysis; format: ADME, organism-based; details: in vivo, 12 h
[16] = AUC (0 to t) in Sprague-Dawley rat at 20 mg/kg, IG measured upto 1440 mins by LC-MS/MS analysis; format: ADME, organism-based; details: in vivo, po
[17] = AUC (0 to t) in Sprague-Dawley rat at 20 mg/kg, ip measured upto 720 mins by LC-MS/MS analysis; format: ADME, organism-based; details: in vivo
[18] = MRT (0 to infinity) in Sprague-Dawley rat at 20 mg/kg, IG measured upto 1440 mins by LC-MS/MS analysis; format: ADME, organism-based; details: in vivo, po
[19] = system: THP-M; test: Inhibition of NLRP3 and […] protein-protein interaction in human THP-M cells assessed as suppression activation of NLRP3 inflammasome by affecting ASC oligomerization at 10 to 50 uM pretreated for 24 hrs followed by stimulated with LPS for 3 hrs and ATP for 1 hr by co-IP analysis; format: cell-based; details: dose 10-50 µM, time 28.0 hrs

Row | SMILES | IC50 at 48 h [1] | further results
1 | COCCCNC(=O)c1ccc(Cn2c(SCc3cccc(C)c3)nc3ccncc32)cc1 | > 100 µM | 
2 | COCCCNC(=O)c1ccc(Cn2c(SCc3ccc(Br)cc3)nc3ccncc32)cc1 | 90.3 µM | 
3 | COCCCNC(=O)c1ccc(Cn2c(SCc3ccc(C#N)cc3)nc3ccncc32)cc1 | > 100 µM | 
4 | COc1ccc(N2CCN(CCCNC(=O)COCc3cc(-c4ccc5c(c4)OCO5)on3)CC2)cc1 | 85.2 µM | 
5 | O=C(c1ccc(Cn2c(SCC3CCCCC3)nc3ccncc32)cc1)N1CCCC1 | > 100 µM | 
6 | COCCCNC(=O)c1ccc(Cn2c(SCc3ccc(F)cc3)nc3ccncc32)cc1 | > 100 µM | 
7 | CC(C)(O)c1coc(S(=O)(=O)NC(=O)Nc2c3c(cc4c2CCC4)CCC3)c1 | > 100 µM | Activity [2]: Active
8 | CCCNC(=O)c1ccc(Cn2c(SCC3CCCCC3)nc3ccncc32)cc1 | > 100 µM | 
9 | COCCCNC(=O)c1ccc(Cn2c(SCc3cc(C)cc(C)c3)nc3ccncc32)cc1 | > 100 µM | 
10 | CNC(=O)c1ccc(Cn2c(SCC3CCCCC3)nc3ccncc32)cc1 | > 100 µM | 
11 | COCCCNC(=O)c1ccc(Cn2c(SCc3cccc([N+](=O)[O-])c3)nc3ccncc32)cc1 | > 100 µM | 
12 | CC(C)c1ccc(Cn2c(SCC3CCCCC3)nc3ccncc32)cc1 | 77.3 µM | 
13 | O=C(c1ccccc1)c1ccc(Cn2c(SCC3CCCCC3)nc3ccncc32)cc1 | 72.4 µM | 
14 | CC(C)(C)c1ccc(Cn2c(SCC3CCCCC3)nc3ccncc32)cc1 | 93.5 µM | 
15 | COCCCNC(=O)c1ccc(Cn2c(SCc3ccncc3)nc3ccncc32)cc1 | > 100 µM | 
16 | CC(C)OCCCn1c(=O)c2ccccc2n2c(CCC(=O)NCc3ccccc3)nnc12 | 65.5 µM | 
17 | CCNC(=O)c1ccc(Cn2c(SCC3CCCCC3)nc3ccncc32)cc1 | > 100 µM | 
18 | NC(=O)c1ccc(Cn2c(SCC3CCCCC3)nc3ccncc32)cc1 | > 100 µM | 
19 | COCCCNC(=O)c1ccc(Cn2c(SCc3ccccc3)nc3ccncc32)cc1 | > 100 µM | 
20 | O=C(c1ccc(Cn2c(SCC3CCCCC3)nc3ccncc32)cc1)N1CCOCC1 | > 100 µM | 
21 | CCCCCNC(=O)c1ccc(Cn2c(SCC3CCCCC3)nc3ccncc32)cc1 | 87.5 µM | 
22 | CCOCCCNC(=O)c1ccc(CSc2nc3ccncc3n2Cc2cccc(F)c2)cc1 | > 100 µM | 
23 | COCCCNC(=O)c1ccc(Cn2c(SCC3CCCC3)nc3ccncc32)cc1 | > 100 µM | 
24 | COCCCNC(=O)c1ccc(Cn2c(SCc3ccccn3)nc3ccncc32)cc1 | > 100 µM | 
25 | CCOCCCNC(=O)c1ccc(CSc2nc3ccncc3n2Cc2cccc(OC)c2)cc1 | > 100 µM | 
26 | COCCCNC(=O)c1ccc(Cn2c(SCc3cccc(F)c3)nc3ccncc32)cc1 | > 100 µM | 
27 | COCCCNC(=O)c1ccc(Cn2c(SCc3ccc(F)nc3)nc3ccncc32)cc1 | > 100 µM | 

Row | SMILES | IC50 at 48 h [1] | further results
28 | COCCCNC(=O)c1ccc(Cn2c(SCc3ccccc3F)nc3ccncc32)cc1 | 53.3 µM | 
29 | COc1ccc(C2=NN(C(=O)CSc3nnc(CNC(=O)COc4ccccc4)n3CCc3ccccc3)C(c3ccc(OC)cc3)C2)cc1 (configuration not stated) | > 100 µM | 
30 | COCCCNC(=O)c1ccc(Cn2c(SCc3cc(F)cc(F)c3)nc3ccncc32)cc1 | > 100 µM | 
31 | CCC(=O)Nc1ccc(Cn2c(SCC3CCCCC3)nc3ccncc32)cc1 | > 100 µM | 
32 | COCCCNC(=O)c1ccc(Cn2c(SCC=C(C)C)nc3ccncc32)cc1 | > 100 µM | 
33 | COCCCNC(=O)c1ccc(Cn2c(SCc3ccc(Cl)cc3)nc3ccncc32)cc1 | 23 µM | 
34 | O=C(c1ccc(Cn2c(SCC3CCCCC3)nc3ccncc32)cc1)N1CCNCC1 | > 100 µM | MRT inf [3]: 1.32 h; bioavailability [4]: 13.2%; AUC(0-inf) [5]: 906 ng·h/mL; MRT last at 12 h [6]: 36.9 min; MRT last at 24 h [7]: 2.89 h; Cmax [8]: 280 ng/mL; CL/F [9]: 500 mL/min/kg; Tmax [10]: 14.7 min; Vd/F [11]: 4.96 L/kg; half-life [12]: 66.5 min; Vd/F [13]: 193 L/kg; half-life [14]: 236 min; AUC [15]: 103322 ng·min/mL; AUC(0-t) at 24 h [16]: 733 ng·h/mL; AUC(0-t) at 12 h [17]: 1320 ng·h/mL; MRT inf [18]: 4.86 h
35 | CC(=O)Nc1ccc(Cn2c(SCC3CCCCC3)nc3ccncc32)cc1 | > 100 µM | 
36 | CCOc1ccc(CCNC(=O)Cn2nc(-c3ccc(C)c(S(=O)(=O)N4CCCCC4)c3)c3ccccc3c2=O)cc1OCC | > 100 µM | 
37 | COCCCNC(=O)c1ccc(Cn2c(SCc3ccc([N+](=O)[O-])cc3)nc3ccncc32)cc1 | > 100 µM | 
38 | COC(=O)CCCCn1c(SCC2CCCCC2)nc2ccncc21 | > 100 µM | 
39 | COCCCNC(=O)c1ccc(Cn2c(SCc3ccc(C)cc3)nc3ccncc32)cc1 | > 100 µM | 
40 | COCCCNC(=O)c1ccc(Cn2c(SCc3ccc(C(F)(F)F)cc3)nc3ccncc32)cc1 | 51.1 µM | 
41 | COCCNC(=O)c1ccc(Cn2c(SCC3CCCCC3)nc3ccncc32)cc1 | 96.3 µM | 
42 | COCCCNC(=O)c1ccc(Cn2c(SCc3ccc(OC)cc3)nc3ccncc32)cc1 | > 100 µM | 
43 | CCCCNC(=O)c1ccc(Cn2c(SCC3CCCCC3)nc3ccncc32)cc1 | > 100 µM | 
44 | CNC(=O)CCn1c(SCC2CCCCC2)nc2ccncc21 | > 100 µM | 
45 | COC(=O)c1ccc(Cn2c(SCC3CCCCC3)nc3ccncc32)cc1 | > 100 µM | 
46 | COCCCNC(=O)c1ccc(Cn2c(SCC3CC3)nc3ccncc32)cc1 | > 100 µM | 
47 | COCCCNC(=O)c1ccc(Cn2c(SCC3CCC3)nc3ccncc32)cc1 | > 100 µM | 
48 | COc1ccc(N2CCN(CCCNC(=O)c3nnc(Cc4ccc(F)cc4)o3)CC2)cc1 | > 100 µM | 
49 | CCCNC(=O)CCCCn1c(=O)c2ccccc2n(CC(=O)NCc2ccc(F)cc2)c1=O | > 100 µM | 
50 | CCOC(=O)c1ccc(Cn2c(SCC3CCCCC3)nc3ccncc32)cc1 | > 100 µM | inhibition [19]: Active
51 | COCCCNC(=O)c1ccc(Cn2c(SCc3cccnc3)nc3ccncc32)cc1 | > 100 µM | 
52 | CCCC(=O)Nc1ccc(Cn2c(SCC3CCCCC3)nc3ccncc32)cc1 | > 100 µM | 
53 | CCCc1ccc(Cn2c(SCC3CCCCC3)nc3ccncc32)cc1 | 87.6 µM | 
54 | COc1ccc(-c2[nH]c3ccccc3c2SCCNC(=O)c2ccc(S(=O)(=O)N3CCOCC3)cc2)cc1 | > 100 µM | 
